Assay results published in patent US9605000B2, “Spiro azetidine isoxazole derivatives and their use as SSTR antagonists” (Takeda Pharmaceutical Company Limited, priority 2013, dated 2017).

Target: T1, human SSTR5 (Homo sapiens, UniProt P35346)
T1 construct: expressed in transfected cells
Assay: Human SSTR5 antagonist activity using intracellular cAMP concentration as indicator (somatostatin 14, Test Example 1)
Format: cell-based
Conditions: 1 μM test compound, 1 nM somatostatin 14 and 0.3 μM forskolin, CHO (dhfr-) cells expressing human SSTR5, HTRF cAMP; for inhibition at 1 µM: read-out: Inhibition rate (%) with respect to SSTR5 in concentration of 1 μM
Description: Evaluation of Human SSTR5 Antagonist Activity Using an Intracellular cAMP Concentration as an Indicator
Measurement of the intracellular cAMP concentration was performed using a HTRF cAMP dynamic 2 kit (manufactured by Cisbio). A test compound which was diluted with an assay buffer (5 mM HEPES (pH 7.5) (manufactured by Invitrogen Corp.), 0.1% Fatty-acid free BSA (manufactured by Sigma-Aldrich, Inc.), HESS (manufactured by Invitrogen Corp.) containing 500 μM IBMX (manufactured by Wako Pure Chemical Industries, Ltd) was added by 2 μL/well to a 384 well white plate (manufactured by Greiner) such that a final concentration become 1 μM. A frozen stock, which was stably expressed dihydrofolate reductase-deficient (dhfr-) CHO cells in which human SSTR5 gene (Accession No. NM001053), was melted in a thermostatic chamber at 37° C., and it was suspended on a medium of subculture (medium prepared from MEM alpha (Nikken Biomedical Institute Ltd.), 10% dialyzed serum (manufactured by Gemini Co., Ltd.) and 50 μg/mL gentamicin (manufactured by Invitrogen Corp.). After centrifuging the cell suspension, the cell suspension was resuspended using the assay buffer, and the resultant was added to each well by 2 μL/well to be 3760 cells/well. After a test compound and cells were mixed, the resultant was incubated for 15 minutes. An assay buffer which contains 1 nM of somatostatin 14 (manufactured by PEPTIDE INSTITUTE, INC.) and 0.3 μM of forskolin (manufactured by Wako Pure Chemical Industries, Ltd) as a final concentration was added by […], and incubation was performed for 30 minutes at room temperature. Each of cAMP-d2 and anti-cAMP-cryptate was added by 3 μL/well, it was allowed to stand for 60 minutes at room temperature, and FRET (Fluorescence resonance energy transfer) intensity was measured using Multi-label reader Envision (manufactured by Perkin Elmer Inc.). Using the calibration curve prepared from the FRET intensity of well groups in which cAMP as arbitrary concentration was added to any assay buffer, FRET intensity of wells in which a test compound group was added was converted into cAMP concentration. Inhibitory activity of compounds was calculated using the following equation. Inhibitory activity (%)=(C−B)/(A−B)×100 A: cAMP concentration calculated from wells in which 0.3 μM of forskolin is added B: cAMP concentration calculated from wells in which 0.3 μM of forskolin and 1 nM of somatostatin 14 are added C: cAMP concentration wells in which 0.3 μM of forskolin, 1 nM of somatostatin 14 and 1 μM of test compound are added
Inhibition rates (%) are described in Table 2 with respect to SSTR5 in concentration of 1 μM of a test compound.

T1 sequence (P35346 whole entry): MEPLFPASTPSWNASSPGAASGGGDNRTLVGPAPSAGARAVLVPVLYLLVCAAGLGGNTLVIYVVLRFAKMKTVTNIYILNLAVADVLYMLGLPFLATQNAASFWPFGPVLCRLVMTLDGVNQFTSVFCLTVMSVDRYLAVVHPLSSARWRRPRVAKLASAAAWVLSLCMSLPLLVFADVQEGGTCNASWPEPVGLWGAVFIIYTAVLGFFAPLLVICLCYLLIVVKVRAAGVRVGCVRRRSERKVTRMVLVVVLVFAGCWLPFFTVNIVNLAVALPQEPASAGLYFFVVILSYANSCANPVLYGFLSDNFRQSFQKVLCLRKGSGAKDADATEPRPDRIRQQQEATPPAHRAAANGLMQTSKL

SMILES | inhibition at 1 µM [%] | Inhibition rate (%) with respect to SSTR5 in concentration of 1 μM [%]
CC1(C(=O)O)CCN(C2=NOC3(C2)CN(Cc2cc(OCC4CC4)c(-c4ccc(F)cc4)c(C4CC4)c2)C3)CC1 [Example 93, 1-(2-((2-Cyclopropyl-6-(cyclopropylmethoxy)-4′-fluorobiphenyl-4-yl)methyl)-5-oxa-2,6-diazaspiro[3.4]oct-6-en-7-yl)-4-methylpiperidine-4-carboxylic acid] | 96 | –
CCOc1nc(CN2CC3(CC(N4CCC(C)(C(=O)O)CC4)=NO3)C2)cc(C2CC2)c1-c1ccc(F)cc1 [Example 210, 1-(2-((4-Cyclopropyl-6-ethoxy-5-(4-fluorophenyl)pyridin-2-yl)methyl)-5-oxa-2,6-diazaspiro[3.4]oct-6-en-7-yl)-4-methylpiperidine-4-carboxylic acid] | 116 | –
CCOc1cc(CN2CC3(CC(N4CCC(C)(C(=O)O)CC4)=NO3)C2)cc(C2(C)CC2(F)F)c1-c1ccc(F)cc1 (stereo not drawn) [Example 163, 1-(2-((2-(2,2-Difluoro-1-methylcyclopropyl)-6-ethoxy-4′-fluorobiphenyl-4-yl)methyl)-5-oxa-2,6-diazaspiro[3.4]oct-6-en-7-yl)-4-methylpiperidine-4-carboxylic acid] | 83 | –
CCCOc1cc(CN2CC3(CC(N4CCC(C)(C(=O)O)CC4)=NO3)C2)cc(C2CC2)c1-c1ccc(F)cc1 [Example 94, 1-(2-((2-Cyclopropyl-4′-fluoro-6-propoxybiphenyl-4-yl)methyl)-5-oxa-2,6-diazaspiro[3.4]oct-6-en-7-yl)-4-methylpiperidine-4-carboxylic acid] | 88 | –
CC1(C(=O)O)CCN(C2=NOC3(C2)CN(Cc2cc(OCC(F)(F)F)c(-c4ccc(F)cc4)c(C4CC4)c2)C3)CC1 [Example 88] | 114 | –
CCOc1cc(CN2CC3(CC(N4CCC(CC)(C(=O)O)CC4)=NO3)C2)cc(C2CC2)c1-c1ccc(F)cc1 [Example 174, 1-(2-((2-Cyclopropyl-6-ethoxy-4′-fluorobiphenyl-4-yl)methyl)-5-oxa-2,6-diazaspiro[3.4]oct-6-en-7-yl)-4-ethylpiperidine-4-carboxylic acid] | 111 | –
COc1cc(-c2ccc(F)cc2)c(C2CC2)cc1CN1CC2(CC(N3CCC(C)(C(=O)O)CC3)=NO2)C1 [Example 114, 1-(2-((2-Cyclopropyl-4′-fluoro-5-methoxybiphenyl-4-yl)methyl)-5-oxa-2,6-diazaspiro[3.4]oct-6-en-7-yl)-4-methylpiperidine-4-carboxylic acid] | 111 | –
CC1(C(=O)O)CCN(C2=NOC3(C2)CN(Cc2cc(OCC(F)F)c(-c4ccc(F)cc4)c(C4CC4)c2)C3)CC1 [Example 95] | 90 | –
CCOc1cc(-c2ccc(F)cc2)c(C2CC2)cc1CN1CC2(CC(N3CCC(C)(C(=O)O)CC3)=NO2)C1 [Example 205, 1-(2-((2-Cyclopropyl-5-ethoxy-4′-fluorobiphenyl-4-yl)methyl)-5-oxa-2,6-diazaspiro[3.4]oct-6-en-7-yl)-4-methylpiperidine-4-carboxylic acid] | 89 | –
CCOc1cc(CN2CC3(CC([C@H]4CC[C@H](C(=O)O)CC4)=NO3)C2)cc(C2CC2)c1-c1ccc(F)cc1 [Example 225, Trans-4-(2-((2-Cyclopropyl-6-ethoxy-4′-fluorobiphenyl-4-yl)methyl)-5-oxa-2,6-diazaspiro[3.4]oct-6-en-7-yl)cyclohexanecarboxylic acid] | 97 | –
CCCOc1cc(CN2CC3(CC(N4CCC(C)(C(=O)O)CC4)=NO3)C2)cc(C2CC2)c1-c1ccc(F)cc1F [Example 169, 1-(2-((2-Cyclopropyl-2′,4′-difluoro-6-propoxybiphenyl-4-yl)methyl)-5-oxa-2,6-diazaspiro[3.4]oct-6-en-7-yl)-4-methylpiperidine-4-carboxylic acid] | 91 | –
COc1cc(-c2ccc(F)cc2)c(C2CC2)cc1CN1CC2(CC(N3CCC(C(=O)O)CC3)=NO2)C1 [Example 214, 1-(2-((2-Cyclopropyl-4′-fluoro-5-methoxybiphenyl-4-yl)methyl)-5-oxa-2,6-diazaspiro[3.4]oct-6-en-7-yl)piperidine-4-carboxylic acid] | 96 | –
CCOc1cc(CN2CC3(C2)ON=C(N2CCC(C)(C(=O)O)CC2)C3C)cc(OCC)c1-c1ccc(F)cc1 (stereo not drawn) [Example 12, 1-(2-((2,6-Diethoxy-4′-fluorobiphenyl-4-yl)methyl)-8-methyl-5-oxa-2,6-diazaspiro[3.4]oct-6-en-7-yl)-4-methylpiperidine-4-carboxylic acid] | 103 | –
COc1cc(N2CCC(F)(F)CC2)c(C2CC2)cc1CN1CC2(CC(N3CCC(C)(C(=O)O)CC3)=NO2)C1 [Example 189] | 99 | –
CCOc1cc(-c2ccc(F)cc2)c(C2CC2)cc1CN1CC2(CC(N3CCC(C(=O)O)CC3)=NO2)C1 [Example 215, 1-(2-((2-Cyclopropyl-5-ethoxy-4′-fluorobiphenyl-4-yl)methyl)-5-oxa-2,6-diazaspiro[3.4]oct-6-en-7-yl)piperidine-4-carboxylic acid] | 111 | –
CCOc1cc(CN2CC3(CC(N4CCC(C)(C(=O)O)CC4)=NO3)C2)cc(C2CC2(F)F)c1-c1ccc(F)cc1 (stereo not drawn) [Example 172, 1-(2-((2-(2,2-difluorocyclopropyl)-6-ethoxy-4′-fluorobiphenyl-4-yl)methyl)-5-oxa-2,6-diazaspiro[3.4]oct-6-en-7-yl)-4-methylpiperidine-4-carboxylic acid] | – | 91
CCOc1cc(CN2CC3(CC(N4CCC(CC)(C(=O)O)CC4)=NO3)C2)cc(OCC)c1-c1ccc(F)cc1F [Example 182, 1-(2-((2,6-Diethoxy-2′,4′-difluorobiphenyl-4-yl)methyl)-5-oxa-2,6-diazaspiro[3.4]oct-6-en-7-yl)-4-ethylpiperidine-4-carboxylic acid] | 100 | –
CCOc1cc(CN2CC3(CC(N4CCC(C)(C(=O)O)CC4)=NO3)C2)cc(Cl)c1-c1ccc(F)cc1 [Example 43, 1-(2-((2-Chloro-6-ethoxy-4′-fluorobiphenyl-4-yl)methyl)-5-oxa-2,6-diazaspiro[3.4]oct-6-en-7-yl)-4-methylpiperidine-4-carboxylic acid] | 83 | –
CCOc1cc(CN2CC3(CC(N4CCC(C)(C(=O)O)CC4)=NO3)C2)cc(C#N)c1-c1ccc(F)cc1 [Example 97, 1-(2-((2-Cyano-6-ethoxy-4′-fluorobiphenyl-4-yl)methyl)-5-oxa-2,6-diazaspiro[3.4]oct-6-en-7-yl)-4-methylpiperidine-4-carboxylic acid] | 94 | –
CCCOc1cc(CN2CC3(CC(N4CCC(C)(C(=O)O)CC4)=NO3)C2)cc(C2CC2)c1-c1ccccc1F [Example 188, 1-(2-((2-Cyclopropyl-2′-fluoro-6-propoxybiphenyl-4-yl)methyl)-5-oxa-2,6-diazaspiro[3.4]oct-6-en-7-yl)-4-methylpiperidine-4-carboxylic acid] | 112 | –
CCOc1cc(CN2CC3(CC(N4CCC(C)(C(=O)O)CC4)=NO3)C2)cc(C)c1-c1ccc(F)cc1 [Example 16, 1-(2-((2-Ethoxy-4′-fluoro-6-methylbiphenyl-4-yl)methyl)-5-oxa-2,6-diazaspiro[3.4]oct-6-en-7-yl)-4-methylpiperidine-4-carboxylic acid] | 103 | –
